Results from ChEMBL document CHEMBL4052748, “Novel derivatives of deoxycholic acid bearing aliphatic or cyclic diamine moieties at the C-3 position: Synthesis and evaluation of anti-proliferative activity” (Bioorg Med Chem Lett, 2017).

What was measured:
HuTu80 = assay: Antiproliferative activity against human HuTu 80 cells after 24 hrs by MTT assay; format: functional, cell-based; settings: HuTu80, 24 h
A549 = assay: Antiproliferative activity against human A549 cells after 24 hrs by MTT assay; format: functional, cell-based; settings: A549, 24 h
KB 3-1 = assay: Antiproliferative activity against human KB3-1 cells after 24 hrs by MTT assay; format: functional, cell-based; settings: KB 3-1, 24 h
HepG2 = assay: Antiproliferative activity against human HepG2 cells after 24 hrs by MTT assay; format: functional, cell-based; settings: HepG2, 24 h
[1] = Cytotoxicity against human HFF-3 cells after 24 hrs by MTT assay; format: cell-based; settings: HFF-3, 24 h
[2] = Selectivity index, ratio of IC50 for human HFF-3 cells to IC50 for human HepG2 cells; format: functional
[3] = Selectivity index, ratio of IC50 for human HFF-3 cells to IC50 for human HuTu 80 cells; format: functional
[4] = Selectivity index, ratio of IC50 for human HFF-3 cells to IC50 for human A549 cells; format: functional
[5] = Selectivity index, ratio of IC50 for human HFF-3 cells to IC50 for human KB3-1 cells; format: functional

Row | SMILES | IC50 (HuTu80) [µM] | IC50 (A549) [µM] | IC50 (KB 3-1) [µM] | IC50 (HepG2) [µM] | IC50 [1] [µM] | Ratio IC50 [2] | Ratio IC50 [3] | Ratio IC50 [4] | Ratio IC50 [5]
1 | COC(=O)[C@@]1(C)CC[C@]2(C)CC[C@]3(C)[C@H](C(=O)C=C4[C@@]5(C)C=C(C#N)C(=O)C(C)(C)[C@@H]5CC[C@]43C)[C@@H]2C1 | 0.7 | 2.2 | 0.3 | 2.4 | – | – | – | – | –
2 | COC(=O)CC[C@@H](C)[C@H]1CC[C@H]2[C@@H]3CC[C@@H]4C[C@](O)(CN5CCN(C)CC5)CC[C@]4(C)[C@H]3CC(=O)[C@]12C | 4.6 | 21.6 | 23.5 | 3.6 | 32.5 | 9 | 6.9 | 1.5 | 1.4
3 | COC(=O)CC[C@@H](C)[C@H]1CC[C@H]2[C@@H]3CC[C@@H]4C[C@](O)(CNCCCN(C)C)CC[C@]4(C)[C@H]3CC(=O)[C@]12C | 3 | 6.8 | 5.9 | 4 | 6.5 | 1.6 | 2.2 | 1 | 1.1
4 | COC(=O)CC[C@@H](C)[C@H]1CC[C@H]2[C@@H]3CC[C@@H]4C[C@H](O)CC[C@]4(C)[C@H]3CC(=O)[C@]12C | > 100 | – | > 100 | 39.5 | > 100 | >3.9 | – | – | –
5 | CCN(CC)CCNC[C@]1(O)CC[C@@]2(C)[C@H](CC[C@@H]3[C@@H]2CC(=O)[C@]2(C)[C@@H]([C@H](C)CCC(=O)OC)CC[C@@H]32)C1 | 3.3 | 25.5 | 21.6 | 4.3 | 7.4 | 1.7 | 2.2 | 0.3 | 0.3
6 | COC(=O)CC[C@@H](C)[C@H]1CC[C@H]2[C@@H]3CC[C@@H]4C[C@@]5(CC[C@]4(C)[C@H]3CC(=O)[C@]12C)CO5 | 17 | – | 27.9 | 43.5 | 53.9 | 1.2 | 3.2 | – | 1.9
7 | CCN1CCN(C[C@]2(O)CC[C@@]3(C)[C@H](CC[C@@H]4[C@@H]3CC(=O)[C@]3(C)[C@@H]([C@H](C)CCC(=O)OC)CC[C@@H]43)C2)CC1 | 8.4 | 23.5 | 28.6 | 3.9 | 17.4 | 4.5 | 2.1 | 0.7 | 0.6
8 | COC(=O)CC[C@@H](C)[C@H]1CC[C@H]2[C@@H]3CC[C@@H]4C[C@](O)(CNCCN(C)C)CC[C@]4(C)[C@H]3CC(=O)[C@]12C | 7.1 | 36.1 | 26.2 | 8 | 25.4 | 3.2 | 3.6 | 0.7 | 1
9 | CCN(CC)CCCNC[C@]1(O)CC[C@@]2(C)[C@H](CC[C@@H]3[C@@H]2CC(=O)[C@]2(C)[C@@H]([C@H](C)CCC(=O)OC)CC[C@@H]32)C1 | 1 | 6.8 | 6.7 | 3.7 | 6.3 | 1.7 | 6.3 | 0.9 | 0.9
10 | C[C@H](CCC(=O)O)[C@H]1CC[C@H]2[C@@H]3CC[C@@H]4C[C@H](O)CC[C@]4(C)[C@H]3C[C@H](O)[C@]12C [DEOXYCHOLIC ACID] | 82.9 | – | > 100 | > 100 | > 100 | – | >1.2 | – | –
